Results on 23 molecules are retold here after ChEMBL document CHEMBL5335863, “Design, Synthesis, and Evaluation of 8-(o-Tolyl)quinazoline Derivatives as Small-Molecule PD-1/PD-L1 Antagonists” (ACS Med Chem Lett, 2024).

One data set has as its system Jurkat. The experiment in a line: Cytotoxicity against human Jurkat cells assessed as reduction in cell viability at 3.3 uM incubated for 48 hrs by CCK-8 assay. It counts as toxicity, cell-based.
Conditions: not given
On the technique in general: Formazan colour is commonly taken as a measure of viable cells.
Consider `Cc1c(COc2cc(OCc3cccc(C#N)c3)c(CNC[C@@H](O)CO)cc2Cl)cccc1-c1cccc2c(Oc3cc(OCc4cccc(C#N)c4)c(CNC[C@@H](O)CO)cc3Cl)ncnc12`, for which the Activity entry is “Non-Toxic”.

A further data set deals with T1, Programmed cell death protein 1/Programmed cell death 1 ligand 1 (Homo sapiens, UniProt Q15116+Q9NZQ7). Put plainly: Inhibition of PD-1/PD-L1 interaction in co-culture of Jurkat-NFAT-PD-1 cells expressing PD-1 and reporter gene and Hep3B-OS8-hPD-L1 cells expressing OS-8 and human PD-L1 assessed as increase in luminescence intensity incubated for 6 hrs by luminometry. The conditions noted are these: dose 0.4-1.11 µM. (In general: In a reporter assay the amount or activity of a reporter protein is the signal.)
T1 sequence (Q15116 whole entry): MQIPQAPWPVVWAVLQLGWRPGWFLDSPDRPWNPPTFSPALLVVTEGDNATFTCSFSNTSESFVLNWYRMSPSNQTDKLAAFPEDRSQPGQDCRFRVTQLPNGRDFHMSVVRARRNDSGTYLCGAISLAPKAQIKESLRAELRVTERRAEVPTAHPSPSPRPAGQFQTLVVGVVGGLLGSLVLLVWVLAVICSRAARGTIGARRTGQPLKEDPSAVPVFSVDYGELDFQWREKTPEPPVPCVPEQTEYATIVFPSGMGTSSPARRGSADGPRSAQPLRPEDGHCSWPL
T1 sequence (Q9NZQ7 whole entry): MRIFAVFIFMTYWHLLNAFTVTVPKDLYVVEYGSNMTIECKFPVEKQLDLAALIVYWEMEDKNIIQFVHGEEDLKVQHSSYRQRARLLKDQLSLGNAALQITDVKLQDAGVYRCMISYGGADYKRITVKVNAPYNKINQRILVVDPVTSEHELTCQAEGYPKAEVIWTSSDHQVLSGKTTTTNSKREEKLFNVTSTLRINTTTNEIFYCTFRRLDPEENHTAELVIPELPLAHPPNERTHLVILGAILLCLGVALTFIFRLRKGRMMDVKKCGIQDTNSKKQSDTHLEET
For the molecule `Cc1c(COc2cc(OCc3cccc(C#N)c3)c(CNC[C@@H](O)CO)cc2Cl)cccc1-c1cccc2c(Oc3cc(OCc4cccc(C#N)c4)c(CNC[C@@H](O)CO)cc3Cl)ncnc12`, the inhibition result was “Dose-Dependent Effect”.

For another data set, the target named is T1, Programmed cell death protein 1/Programmed cell death 1 ligand 1. The experiment in a line: Inhibition of PD-1/PD-L1 interaction (unknown origin) incubated for 60 min by HTRF assay. The class given is protein-complex assay.
Conditions: not given
As a reminder, the IC50 is the concentration at which inhibition is half-maximal. Low readings indicate higher potency, high ones lower potency. In turn, `Cc1c(COc2cc(OCc3cccc(C#N)c3)c(CNC(C)(CO)CO)cc2Cl)cccc1-c1cccc2c(Oc3cc(OCc4cccc(C#N)c4)c(CNC(C)(CO)CO)cc3Cl)ncnc12` came in with an IC50 of 30.2 nM. This counts as double-digit nanomolar.

Turning to `Cc1c(COc2cc(OCc3cccc(C#N)c3)c(CNC3CCC3)cc2Cl)cccc1-c1cccc2c(Oc3cc(OCc4cccc(C#N)c4)c(CNC4CCC4)cc3Cl)ncnc12`, the midpoint of inhibition, the IC50, lay at 105 nM.

`Cc1c(COc2cc(OCc3cccc(C#N)c3)c(CNC3CCCC3)cc2Cl)cccc1-c1cccc2c(Oc3cc(OCc4cccc(C#N)c4)c(CNC4CCCC4)cc3Cl)ncnc12` came in with an IC50 of 112 nM.

In turn, `Cc1c(COc2cc(OCc3cccc(C#N)c3)c(CNC3CC3)cc2Cl)cccc1-c1cccc2c(Oc3cc(OCc4cccc(C#N)c4)c(CNC4CC4)cc3Cl)ncnc12` gave an IC50 of 390 nM. This IC50 lies about 3.5-fold higher than the previous one.

In turn, `Cc1c(COc2cc(OCc3cccc(C#N)c3)c(CN(C)CCO)cc2Cl)cccc1-c1cccc2c(Oc3cc(OCc4cccc(C#N)c4)c(CN(C)CCO)cc3Cl)ncnc12` displayed an IC50 of 44.8 nM.

`Cc1c(COc2cc(OCc3cccc(C#N)c3)c(CN3CC[C@H](O)C3)cc2Cl)cccc1-c1cccc2c(Oc3cc(OCc4cccc(C#N)c4)c(CN4CC[C@H](O)C4)cc3Cl)ncnc12` displayed a 50% inhibitory concentration (IC50) of 55.5 nM.

In turn, `Cc1c(COc2cc(OCc3cccc(C#N)c3)c(CNC(C)C)cc2Cl)cccc1-c1cccc2c(Oc3cc(OCc4cccc(C#N)c4)c(CNC(C)C)cc3Cl)ncnc12` yielded a 50% inhibitory concentration (IC50) of 51.5 nM.

`Cc1c(COc2cc(OCc3cccc(C#N)c3)c(CO)cc2Cl)cccc1-c1cccc2c(Oc3cc(OCc4cccc(C#N)c4)c(CO)cc3Cl)ncnc12` registered an IC50 above 1000 nM.

With `CCNCc1cc(Cl)c(OCc2cccc(-c3cccc4c(Oc5cc(OCc6cccc(C#N)c6)c(CNCC)cc5Cl)ncnc34)c2C)cc1OCc1cccc(C#N)c1`, the IC50 turned out to be 48.5 nM. This lies in the double-digit nanomolar range.

In the case of `Cc1c(COc2cc(OCc3cccc(C#N)c3)c(C=O)cc2Cl)cccc1-c1cccc2c(Oc3cc(OCc4cccc(C#N)c4)c(C=O)cc3Cl)ncnc12`, the IC50 is above 1000 nM.

With `Cc1c(COc2cc(OCc3cccc(C#N)c3)c(CNCCO)cc2Cl)cccc1-c1cccc2c(Oc3cc(OCc4cccc(C#N)c4)c(CNCCO)cc3Cl)ncnc12`, the IC50 amounted to 37.7 nM. This counts as double-digit nanomolar.

`Cc1c(COc2cc(OCc3cccc(C#N)c3)c(CNC[C@@H](O)CO)cc2Cl)cccc1-c1cccc2c(Oc3cc(OCc4cccc(C#N)c4)c(CNC[C@@H](O)CO)cc3Cl)ncnc12` displayed an IC50 of 23.8 nM.

With `Cc1c(COc2cc(OCc3cccc(C#N)c3)c(CNC(CO)CO)cc2Cl)cccc1-c1cccc2c(Oc3cc(OCc4cccc(C#N)c4)c(CNC(CO)CO)cc3Cl)ncnc12`, the midpoint of inhibition, the IC50, lay at 47.2 nM.

With `CC(CO)(CO)NCc1cc(Cl)c(Oc2ncnc3c(-c4ccc5c(c4)OCCO5)cccc23)cc1OCc1cccc(C#N)c1`, the IC50 was 40.8 nM.

Regarding `Cc1c(COc2cc(OCc3cccc(C#N)c3)c(CNC(CO)(CO)CO)cc2Cl)cccc1-c1cccc2c(Oc3cc(OCc4cccc(C#N)c4)c(CNC(CO)(CO)CO)cc3Cl)ncnc12`, the IC50 worked out at 25.3 nM.

In turn, `COCCNCc1cc(Cl)c(OCc2cccc(-c3cccc4c(Oc5cc(OCc6cccc(C#N)c6)c(CNCCOC)cc5Cl)ncnc34)c2C)cc1OCc1cccc(C#N)c1` displayed a half-maximal inhibitory concentration (IC50) of 101 nM.

`Cc1c(COc2cc(OCc3cccc(C#N)c3)c(CNC3CCCCC3)cc2Cl)cccc1-c1cccc2c(Oc3cc(OCc4cccc(C#N)c4)c(CNC4CCCCC4)cc3Cl)ncnc12` displayed an IC50 of 167 nM.

In turn, `Cc1c(COc2cc(OCc3cccc(C#N)c3)c(CNC[C@H](O)CO)cc2Cl)cccc1-c1cccc2c(Oc3cc(OCc4cccc(C#N)c4)c(CNC[C@H](O)CO)cc3Cl)ncnc12` had a half-inhibitory concentration (IC50) of 33.9 nM.

Molecule `Cc1c(Nc2nccc3cc(CN4CC[C@H](O)C4)cnc23)cccc1-c1cccc(-c2nc3cc(CN4CC[C@H](C(=O)O)C4)cc(C#N)c3o2)c1C` came in with a 50% inhibitory concentration (IC50) of 12.1 nM. This IC50 lies about 2.8-fold lower than the previous one.

Turning to `Cc1c(COc2cc(OCc3cccc(C#N)c3)c(CN3CCC(O)CC3)cc2Cl)cccc1-c1cccc2c(Oc3cc(OCc4cccc(C#N)c4)c(CN4CCC(O)CC4)cc3Cl)ncnc12`, half-maximal inhibition (IC50) was put at 75.8 nM. Against the preceding molecule, the IC50 is about 6.3-fold higher.

In the case of `CC(=O)NCCNCc1cc(Cl)c(OCc2cccc(-c3cccc4c(Oc5cc(OCc6cccc(C#N)c6)c(CNCCNC(C)=O)cc5Cl)ncnc34)c2C)cc1OCc1cccc(C#N)c1`, the half-inhibitory concentration (IC50) worked out at 61.4 nM. The IC50 values of the last two molecules are within 1.5-fold of each other.

Molecule `Cc1c(COc2cc(OCc3cccc(C#N)c3)c(CNC3CCOCC3)cc2Cl)cccc1-c1cccc2c(Oc3cc(OCc4cccc(C#N)c4)c(CNC4CCOCC4)cc3Cl)ncnc12` showed a concentration for half-maximal inhibition (IC50) of 59.7 nM.

`Cc1c(COc2cc(OCc3cccc(C#N)c3)c(CN3CC[C@@H](O)C3)cc2Cl)cccc1-c1cccc2c(Oc3cc(OCc4cccc(C#N)c4)c(CN4CC[C@@H](O)C4)cc3Cl)ncnc12` gave an IC50 of 46.2 nM.
